Our source for the inhibition values is ChEMBL document CHEMBL3132769, “Fragment growing to retain or alter the selectivity of anchored kinase hinge-binding fragments” (Medchemcomm, 2014).

Test [1] addresses Epidermal growth factor receptor (Homo sapiens) (UniProt P00533). Put plainly: Inhibition of human EGFR catalytic domain expressed in baculovirus assessed as substrate phosphorylation using fluorescence-labelled peptides as substrate at 0.2 uM after 90 mins by microfluidic peptide phosphorylation assay.
For test [2], the target named is Fibroblast growth factor receptor 1 (Homo sapiens) (UniProt P11362). Put plainly: Inhibition of human FGFR1 catalytic domain expressed in baculovirus assessed as substrate phosphorylation using fluorescence-labelled peptides as substrate at 0.2 uM after 90 mins by microfluidic peptide phosphorylation assay.
Sequence of Fibroblast growth factor receptor 1 (Homo sapiens) (P11362 22-822 limits assumed): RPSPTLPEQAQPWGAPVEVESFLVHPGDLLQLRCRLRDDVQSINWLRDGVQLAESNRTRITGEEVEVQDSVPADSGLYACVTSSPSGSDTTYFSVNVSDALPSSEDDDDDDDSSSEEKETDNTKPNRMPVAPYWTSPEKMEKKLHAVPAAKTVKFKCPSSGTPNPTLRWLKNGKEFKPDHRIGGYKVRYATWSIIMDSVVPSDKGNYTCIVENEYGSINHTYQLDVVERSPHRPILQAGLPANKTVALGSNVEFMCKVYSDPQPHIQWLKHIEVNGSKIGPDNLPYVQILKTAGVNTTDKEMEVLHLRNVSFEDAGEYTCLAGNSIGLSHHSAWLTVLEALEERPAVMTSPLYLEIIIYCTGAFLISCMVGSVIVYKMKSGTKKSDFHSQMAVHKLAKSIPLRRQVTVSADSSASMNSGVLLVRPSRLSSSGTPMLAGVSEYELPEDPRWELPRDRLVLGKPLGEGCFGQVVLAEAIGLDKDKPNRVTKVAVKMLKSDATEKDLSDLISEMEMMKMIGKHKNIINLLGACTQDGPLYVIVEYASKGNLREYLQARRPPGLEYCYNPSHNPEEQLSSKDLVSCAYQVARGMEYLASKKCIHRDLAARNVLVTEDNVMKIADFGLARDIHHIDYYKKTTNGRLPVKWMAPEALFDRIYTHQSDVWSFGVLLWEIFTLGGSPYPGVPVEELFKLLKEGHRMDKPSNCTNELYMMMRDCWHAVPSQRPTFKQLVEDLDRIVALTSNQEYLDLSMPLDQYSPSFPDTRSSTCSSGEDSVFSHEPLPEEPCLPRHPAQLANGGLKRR
Test [3] concerns the target T1, Mitogen-activated protein kinase 13 (Homo sapiens) (UniProt O15264).
T1 sequence (whole entry): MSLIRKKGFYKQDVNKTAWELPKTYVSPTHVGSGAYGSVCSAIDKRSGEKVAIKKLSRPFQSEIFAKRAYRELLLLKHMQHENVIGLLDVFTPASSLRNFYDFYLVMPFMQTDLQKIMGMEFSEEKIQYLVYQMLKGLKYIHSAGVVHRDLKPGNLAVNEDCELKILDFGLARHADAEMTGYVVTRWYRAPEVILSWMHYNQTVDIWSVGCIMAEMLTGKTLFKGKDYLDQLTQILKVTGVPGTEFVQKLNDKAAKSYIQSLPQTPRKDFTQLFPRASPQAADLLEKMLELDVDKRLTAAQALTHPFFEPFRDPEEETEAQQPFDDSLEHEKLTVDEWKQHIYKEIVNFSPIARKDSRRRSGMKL
Nature of the test: Inhibition of human full length p38 delta expressed in Escherichia coli cell assessed as substrate phosphorylation using fluorescence-labelled peptides as substrate at 0.1 uM after 90 mins by microfluidic peptide phosphorylation assay.

Test [4] concerns the target T2, Aurora kinase A (Homo sapiens) (UniProt O14965).
T2 sequence (whole entry): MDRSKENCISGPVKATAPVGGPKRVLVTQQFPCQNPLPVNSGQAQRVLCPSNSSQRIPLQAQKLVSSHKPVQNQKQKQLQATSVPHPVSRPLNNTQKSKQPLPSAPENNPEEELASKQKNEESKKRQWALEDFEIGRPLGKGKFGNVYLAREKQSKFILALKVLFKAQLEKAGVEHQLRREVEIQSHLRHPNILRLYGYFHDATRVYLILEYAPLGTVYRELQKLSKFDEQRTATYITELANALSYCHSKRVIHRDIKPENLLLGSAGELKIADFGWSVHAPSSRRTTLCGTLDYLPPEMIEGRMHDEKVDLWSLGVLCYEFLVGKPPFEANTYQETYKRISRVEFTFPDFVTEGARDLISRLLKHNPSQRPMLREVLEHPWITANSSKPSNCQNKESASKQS
Nature of the test: Inhibition of human full length AurA expressed in baculovirus assessed as substrate phosphorylation using fluorescence-labelled peptides as substrate at 95 uM after 90 mins by microfluidic peptide phosphorylation assay.

Test [5] deals with Mitogen-activated protein kinase 3 (Homo sapiens) (UniProt P27361). Put plainly: Inhibition of human full length ERK1 expressed in Escherichia coli cell assessed as substrate phosphorylation using fluorescence-labelled peptides as substrate at 9 uM after 90 mins by microfluidic peptide phosphorylation assay.
Sequence of Mitogen-activated protein kinase 3 (Homo sapiens) (P27361 whole entry): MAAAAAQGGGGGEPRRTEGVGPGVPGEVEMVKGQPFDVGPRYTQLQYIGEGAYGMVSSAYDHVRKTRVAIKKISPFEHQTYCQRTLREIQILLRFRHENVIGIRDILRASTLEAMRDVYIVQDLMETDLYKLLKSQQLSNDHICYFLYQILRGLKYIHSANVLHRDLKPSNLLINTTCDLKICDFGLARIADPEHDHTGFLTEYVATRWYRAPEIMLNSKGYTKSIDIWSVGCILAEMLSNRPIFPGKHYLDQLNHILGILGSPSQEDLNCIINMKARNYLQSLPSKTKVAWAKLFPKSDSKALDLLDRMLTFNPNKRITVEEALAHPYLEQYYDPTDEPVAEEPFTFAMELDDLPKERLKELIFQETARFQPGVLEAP
Test [6] deals with Tyrosine-protein kinase ABL1 (Homo sapiens) (UniProt P00519). Put plainly: Inhibition of human full-length ABL expressed in baculovirus assessed as substrate phosphorylation using fluorescence-labelled peptides as substrate at 9 uM after 90 mins by microfluidic peptide phosphorylation assay.
Sequence of Tyrosine-protein kinase ABL1 (Homo sapiens) (P00519 whole entry): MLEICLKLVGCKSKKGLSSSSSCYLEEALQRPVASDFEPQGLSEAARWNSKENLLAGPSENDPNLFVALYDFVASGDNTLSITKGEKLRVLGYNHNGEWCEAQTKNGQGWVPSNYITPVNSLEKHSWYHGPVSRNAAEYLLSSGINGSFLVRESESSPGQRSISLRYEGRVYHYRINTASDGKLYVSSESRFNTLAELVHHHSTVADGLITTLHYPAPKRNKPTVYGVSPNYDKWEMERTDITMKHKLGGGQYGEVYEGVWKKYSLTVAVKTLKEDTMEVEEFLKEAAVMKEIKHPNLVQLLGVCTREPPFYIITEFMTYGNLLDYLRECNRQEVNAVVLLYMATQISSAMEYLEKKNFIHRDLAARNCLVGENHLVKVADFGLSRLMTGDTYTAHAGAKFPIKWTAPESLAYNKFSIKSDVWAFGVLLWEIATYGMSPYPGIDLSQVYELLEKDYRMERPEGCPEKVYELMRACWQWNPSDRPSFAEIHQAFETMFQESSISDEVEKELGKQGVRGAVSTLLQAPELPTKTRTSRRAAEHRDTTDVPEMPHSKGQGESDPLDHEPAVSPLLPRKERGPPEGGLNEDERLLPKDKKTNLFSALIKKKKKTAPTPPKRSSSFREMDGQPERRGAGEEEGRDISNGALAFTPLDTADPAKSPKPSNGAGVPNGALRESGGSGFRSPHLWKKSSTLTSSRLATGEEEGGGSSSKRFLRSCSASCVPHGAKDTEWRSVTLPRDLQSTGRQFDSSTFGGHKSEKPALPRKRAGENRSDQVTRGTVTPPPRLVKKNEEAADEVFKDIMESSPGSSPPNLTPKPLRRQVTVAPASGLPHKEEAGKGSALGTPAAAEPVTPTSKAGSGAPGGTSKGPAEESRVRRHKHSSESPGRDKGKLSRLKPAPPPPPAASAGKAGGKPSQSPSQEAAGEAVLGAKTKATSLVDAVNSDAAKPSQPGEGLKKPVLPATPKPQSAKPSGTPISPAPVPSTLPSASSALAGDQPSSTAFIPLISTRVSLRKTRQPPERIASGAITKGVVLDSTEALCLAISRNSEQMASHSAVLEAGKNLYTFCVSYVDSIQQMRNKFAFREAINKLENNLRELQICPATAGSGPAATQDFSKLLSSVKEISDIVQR
For test [7], the system named is T3, Receptor-type tyrosine-protein kinase FLT3 (Homo sapiens), P36888 [D835Y].
T3 sequence (whole entry): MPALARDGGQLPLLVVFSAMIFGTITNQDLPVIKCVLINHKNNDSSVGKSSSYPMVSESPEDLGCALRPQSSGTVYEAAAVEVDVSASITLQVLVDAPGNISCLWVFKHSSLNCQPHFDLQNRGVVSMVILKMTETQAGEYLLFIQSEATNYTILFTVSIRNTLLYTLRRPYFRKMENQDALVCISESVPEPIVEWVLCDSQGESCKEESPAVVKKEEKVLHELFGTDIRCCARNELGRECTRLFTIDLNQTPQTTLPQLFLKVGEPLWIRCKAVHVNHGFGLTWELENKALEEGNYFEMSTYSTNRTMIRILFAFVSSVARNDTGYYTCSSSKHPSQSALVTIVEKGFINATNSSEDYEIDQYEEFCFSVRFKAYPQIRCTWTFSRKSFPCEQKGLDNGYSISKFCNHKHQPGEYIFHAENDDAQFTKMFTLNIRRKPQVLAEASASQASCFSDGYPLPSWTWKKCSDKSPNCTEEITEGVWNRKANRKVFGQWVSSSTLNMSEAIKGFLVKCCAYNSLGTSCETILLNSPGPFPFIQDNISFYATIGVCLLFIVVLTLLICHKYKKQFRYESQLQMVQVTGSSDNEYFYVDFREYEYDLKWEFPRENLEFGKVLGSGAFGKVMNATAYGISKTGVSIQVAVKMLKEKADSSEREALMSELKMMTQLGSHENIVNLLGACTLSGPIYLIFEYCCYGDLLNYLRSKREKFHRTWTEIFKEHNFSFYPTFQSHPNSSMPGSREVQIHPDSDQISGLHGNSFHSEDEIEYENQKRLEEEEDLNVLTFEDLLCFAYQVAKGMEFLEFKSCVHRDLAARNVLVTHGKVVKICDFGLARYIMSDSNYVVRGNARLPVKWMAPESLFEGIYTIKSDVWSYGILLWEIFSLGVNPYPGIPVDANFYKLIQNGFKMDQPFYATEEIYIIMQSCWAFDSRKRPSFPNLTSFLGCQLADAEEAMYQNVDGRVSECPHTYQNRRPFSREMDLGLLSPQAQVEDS
Nature of the test: Inhibition of human FLT3 D835Y mutant catalytic domain expressed in baculovirus assessed as substrate phosphorylation using fluorescence-labelled peptides as substrate at 0.06 uM after 90 mins by microfluidic peptide phosphorylation assay.

Sequence of Epidermal growth factor receptor (Homo sapiens) (P00533 whole entry, the tested form may be a part): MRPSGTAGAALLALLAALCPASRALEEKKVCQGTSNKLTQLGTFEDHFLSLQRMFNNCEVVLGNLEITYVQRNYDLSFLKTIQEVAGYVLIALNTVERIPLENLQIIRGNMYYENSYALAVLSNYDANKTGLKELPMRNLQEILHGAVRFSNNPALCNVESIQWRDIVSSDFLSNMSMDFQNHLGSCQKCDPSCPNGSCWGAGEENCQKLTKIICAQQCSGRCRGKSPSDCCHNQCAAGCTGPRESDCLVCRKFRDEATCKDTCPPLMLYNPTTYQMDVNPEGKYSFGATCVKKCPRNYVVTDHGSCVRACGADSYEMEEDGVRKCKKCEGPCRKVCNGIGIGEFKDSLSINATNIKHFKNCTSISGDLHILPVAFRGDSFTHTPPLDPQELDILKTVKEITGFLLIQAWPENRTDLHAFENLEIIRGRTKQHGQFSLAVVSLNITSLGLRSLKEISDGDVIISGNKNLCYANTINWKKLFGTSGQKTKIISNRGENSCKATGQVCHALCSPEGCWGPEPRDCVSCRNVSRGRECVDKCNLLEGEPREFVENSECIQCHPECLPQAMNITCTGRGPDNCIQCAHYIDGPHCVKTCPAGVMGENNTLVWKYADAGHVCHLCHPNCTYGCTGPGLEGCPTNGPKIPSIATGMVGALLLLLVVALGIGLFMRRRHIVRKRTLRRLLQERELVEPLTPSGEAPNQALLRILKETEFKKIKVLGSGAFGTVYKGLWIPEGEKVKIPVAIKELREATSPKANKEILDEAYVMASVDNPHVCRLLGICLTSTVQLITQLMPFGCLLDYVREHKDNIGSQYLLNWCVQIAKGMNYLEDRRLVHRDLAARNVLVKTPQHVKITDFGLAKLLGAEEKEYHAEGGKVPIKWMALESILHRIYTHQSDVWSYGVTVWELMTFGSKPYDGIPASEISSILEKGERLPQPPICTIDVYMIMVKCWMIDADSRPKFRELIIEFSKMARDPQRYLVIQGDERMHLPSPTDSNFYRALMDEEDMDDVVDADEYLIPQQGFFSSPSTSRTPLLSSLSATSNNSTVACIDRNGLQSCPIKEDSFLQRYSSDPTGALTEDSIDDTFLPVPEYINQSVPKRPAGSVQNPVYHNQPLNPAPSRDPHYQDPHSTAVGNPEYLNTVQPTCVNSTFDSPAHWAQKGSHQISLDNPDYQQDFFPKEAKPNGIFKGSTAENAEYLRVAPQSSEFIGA

For `Clc1ccc(C2(c3ccc(-c4ncnc5[nH]cnc45)cc3)CCNCC2)cc1`, the inhibition (in general, how much of the control response was suppressed) was determined as 2.5% in test [1] and 13% in test [2].

Turning to `C[C@H](CN(C)C)Oc1nc(Nc2cc3cccc(Cl)c3cn2)cnc1C#N`, the inhibition in test [3] was found to be 2.5%.

On to `NCCc1ccc(-c2ncnc3[nH]cnc23)cc1`, for which the inhibition in test [4] stood at 85%.

For `NCC1CN(c2ncnc3[nH]c4cnccc4c23)CCO1` (configuration not stated), the inhibition in test [5] was determined as 8.5%; in test [6] it was 12%.

`NC1(Cc2ccc(Cl)cc2)CCN(c2ncnc3[nH]ccc23)CC1`: in test [7], the inhibition is 0%.
